Results as given in patent publication US20250115591A1, “NOVEL SULFONAMIDE CARBOXAMIDE COMPOUNDS” (INFLAZOME LIMITED, priority 2017, published 2025).
pIC50: −log10 of the molar value. Counter-ions that a name gives are not always drawn. Like-named read-outs stand apart in the source and are kept apart here.

Assays:
NLRP3 [1] = target: T1, NLRP3 (Homo sapiens (Human), UniProt Q96P20); assay: THP-1 cells pyroptosis assay (LPS + nigericin, resazurin read-out); format: cell-based; conditions: 1 μg/ml LPS, 5 μM nigericin
Method in brief: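 LPS-primed (1 μg/ml) human THP-1 cells in serum-free RPMI were exposed to compound (8-point half-log series, top dose as printed "10M") for 3 h at 37 °C, then to nigericin 5 μM for 1 h. Remaining viability was read by resazurin (100 μM, 1-2 h) fluorescence, and IC50 came from 4-parameter variable-slope regression.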

NLRP3 [2] = target: T1, NLRP3; assay: Human whole blood IL1β release assay (LPS + nigericin); format: cell-based; conditions: human whole blood, 1 μg/ml LPS, nigericin, IL-1β release; read-out: HWB IC50
Experimental: For systemic delivery, the ability to inhibit NLRP3 when the compounds are present within the bloodstream is of great importance. For this reason, the NLRP3 inhibitory activity of a number of compounds in human whole blood was investigated in accordance with the following protocol.
Human whole blood in Li-heparin tubes was obtained from healthy donors from a volunteer donor panel. • 1. Plate out 80 μl of whole blood containing 1 μg/ml of LPS in 96-well, clear bottom cell culture plate (Corning #3585) • 2. Add 10 μl compound (8 points half-log dilution with 10 μM top dose) or vehicle (DMSO 0.1% FAC) to the appropriate wells • 3. Incubate for 3 hrs at 37° C., 5% CO2 • 4. Add 10 μl nigericin (Sigma #N7143) ([…]) to all wells • 5. Incubate for 1 hr at 37° C., 5% CO2 • 6. At the end of the incubation period, spin plates at 30×g for 5 mins to pellet cells and remove 20 μl of supernatant and add to 96-well v-bottom plates for IL-1β analysis (note: these plates containing the supernatants can be stored at −80° C. to be analysed at a later date) • 7. IL-1β was measured according to the manufacturer protocol (Perkin Elmer-AlphaLisa IL-Kit A[220F-5000) • 8. IC50 data is fitted to a non-linear regression equation (log inhibitor vs response-variable slope 4-parameters)

[3] = PK, intravenous administration; format: in vivo, male Sprague Dawley rats; conditions: male, Sprague Dawley, plasma, rat, intravenous; for AUC: read-out: AUC; for clearance: read-out: Cl; for half-life: read-out: T1/2 (converted); for Vd: read-out: Vdss
Experimental: (§1) Pharmacokinetic parameters were determined in male Sprague Dawley rats (Charles River, UK, 250-300 g; or Vital River Laboratory Animal Technology Co Ltd, Beijing, China, 7-9 weeks old). Animals were individually housed during the study and maintained under a 12 h light/dark cycle. Animals had free access to food and water except that orally dosed animals were food deprived overnight prior to the study. For intravenous administration, compounds were formulated as a solution in water or DMSO:PBS [10:90] in 2 mL/kg dosing volume and administered via tail vein. For oral administration, compounds were formulated as a solution in water or DMSO:water [10:90] in 5 mL/kg dosing volume and administered orally. Serial blood samples (about 120-300 μL) were taken from each animal at each of 8 time-points post dose (0.083, 0.25, 0.5, 1, 2, 4, 8 and 24 h). Samples were held on ice for no longer than 30 minutes before centrifugation (10,000 rpm (8,385 g) for 3 minutes; or 5,696 rpm (3,000 g) for 15 minutes) for plasma generation. Plasma was frozen on dry ice prior to bioanalysis. PK parameters were generated from LC-MS/MS data using Dotmatics or Phoenix WinNonlin 6.3 software.

PK, oral administration = format: in vivo, male Sprague Dawley rats; conditions: male, Sprague Dawley, plasma, rat, dose 3 mg/kg
Experimental: as §1

T1 sequence (Q96P20 whole entry): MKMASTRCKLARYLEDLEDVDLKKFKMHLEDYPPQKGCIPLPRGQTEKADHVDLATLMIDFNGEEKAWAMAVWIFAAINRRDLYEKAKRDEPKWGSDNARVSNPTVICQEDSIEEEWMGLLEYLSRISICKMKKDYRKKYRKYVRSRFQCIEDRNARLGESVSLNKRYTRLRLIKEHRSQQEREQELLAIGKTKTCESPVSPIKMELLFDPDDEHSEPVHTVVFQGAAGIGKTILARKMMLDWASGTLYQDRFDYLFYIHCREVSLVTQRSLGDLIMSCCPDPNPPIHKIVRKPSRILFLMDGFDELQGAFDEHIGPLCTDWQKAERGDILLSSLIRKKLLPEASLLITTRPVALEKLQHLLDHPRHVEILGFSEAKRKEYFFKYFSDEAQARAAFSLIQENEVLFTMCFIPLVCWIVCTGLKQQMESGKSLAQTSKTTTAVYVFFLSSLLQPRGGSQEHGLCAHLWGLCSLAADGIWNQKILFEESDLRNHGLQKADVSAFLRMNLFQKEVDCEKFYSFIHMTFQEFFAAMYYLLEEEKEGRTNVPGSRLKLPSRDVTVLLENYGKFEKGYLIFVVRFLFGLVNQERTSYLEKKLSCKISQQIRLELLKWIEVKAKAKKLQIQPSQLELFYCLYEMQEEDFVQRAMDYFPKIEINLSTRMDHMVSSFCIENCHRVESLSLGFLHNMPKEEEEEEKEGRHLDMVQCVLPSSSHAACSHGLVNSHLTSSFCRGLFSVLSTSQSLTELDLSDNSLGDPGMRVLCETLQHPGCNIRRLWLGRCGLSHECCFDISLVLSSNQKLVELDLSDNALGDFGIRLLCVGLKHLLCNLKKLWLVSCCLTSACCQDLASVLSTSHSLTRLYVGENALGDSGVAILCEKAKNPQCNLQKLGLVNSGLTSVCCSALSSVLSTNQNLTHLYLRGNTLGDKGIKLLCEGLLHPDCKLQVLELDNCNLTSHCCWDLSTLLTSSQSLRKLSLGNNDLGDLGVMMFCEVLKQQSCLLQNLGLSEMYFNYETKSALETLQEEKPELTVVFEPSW

pIC50 (NLRP3 [1]) | pIC50 (NLRP3 [2]) | Structure (SMILES) | AUC ([3]; dose 1 mg/kg) [µg·h/mL] | clearance ([3]; dose 1 mg/kg) [L/h/kg] | half-life ([3]; dose 1 mg/kg) [h] | Vd ([3]; dose 1 mg/kg) [L/kg] | other results
5.00 to 6.00 | 5.00 to 6.00 | CN1CCC(S(=O)(=O)NC(=O)Nc2c3c(cc4c2CCC4)CCC3)CC1 [Example 1, N-((1,2,3,5,6,7-Hexahydro-s-indacen-4-yl)carbamoyl)-1-methylpiperidine-4-sulfonamide, potassium salt] | 1.95 | 0.51 | 1.2 | 0.58 | –
> 6.00 | > 6.00 | CC(C)N1CCCC(S(=O)(=O)NC(=O)Nc2c3c(cc4c2CCC4)CCC3)C1 (centres unmarked) [Example 31, N-((1,2,3,5,6,7-Hexahydro-s-indacen-4-yl)carbamoyl)-1-iso-propyl-piperidine-3-sulfonamide, potassium salt] | 2.75 | 0.366 | 4.5 | 0.47 | –
> 6.00 | > 6.00 | COc1cc(-c2ccc3c(c2NC(=O)NS(=O)(=O)c2ccc(=O)n(C(C)C)c2)CCC3)ccn1 [Example 153, 1-Isopropyl-N-((5-(2-methoxypyridin-4-yl)-2,3-dihydro-1H-inden-4-yl)carbamoyl)-6-oxo-1,6-dihydropyridine-3-sulfonamide] | 0.511 | 1.96 | 1.1 | 1.21 | –
> 6.00 | > 6.00 | COc1cc(-c2ccc3c(c2NC(=O)NS(=O)(=O)C2CN(C(C)C)C2)CCC3)ccn1 [Example 159, 1-Isopropyl-N-((5-(2-methoxypyridin-4-yl)-2,3-dihydro-1H-inden-4-yl)carbamoyl)azetidine-3-sulfonamide] | – | – | – | – | –
> 6.00 | > 6.00 | COc1cc(-c2cc(F)cc(C(C)C)c2NC(=O)NS(=O)(=O)C2CN(C3CCC3)C2)ccn1 [Example 162, 1-Cyclobutyl-N-((4-fluoro-2-isopropyl-6-(2-methoxypyridin-4-yl)phenyl)carbamoyl)azetidine-3-sulfonamide] | – | – | – | – | –
> 6.00 | > 6.00 | COc1cc(-c2ccc3c(c2NC(=O)NS(=O)(=O)C2CN(C4CCC4)C2)CCC3)ccn1 [Example 163, 1-Cyclobutyl-N-((5-(2-methoxypyridin-4-yl)-2,3-dihydro-1H-inden-4-yl)carbamoyl)azetidine-3-sulfonamide] | – | – | – | – | –
> 6.00 | > 6.00 | CCN1CC(S(=O)(=O)NC(=O)Nc2c(-c3ccnc(OC)c3)ccc3c2CCC3)C1 [Example 167, 1-Ethyl-N-((5-(2-methoxypyridin-4-yl)-2,3-dihydro-1H-inden-4-yl)carbamoyl)azetidine-3-sulfonamide] | – | – | – | – | –
5.00 to 6.00 | 5.00 to 6.00 | COc1cc(-c2ccc3c(c2NC(=O)NS(=O)(=O)C2CN(Cc4cccnc4)C2)CCC3)ccn1 [Example 170, N-((5-(2-Methoxypyridin-4-yl)-2,3-dihydro-1H-inden-4-yl)carbamoyl)-1-(pyridin-3-ylmethyl)azetidine-3-sulfonamide] | – | – | – | – | –
> 6.00 | > 6.00 | CC(C)c1cc(F)cc(-c2ccnc(C#N)c2)c1NC(=O)NS(=O)(=O)c1ccc(=O)n(C(C)C)c1 [Example 172, N-((2-(2-cyanopyridin-4-yl)-4-fluoro-6-isopropylphenyl)carbamoyl)-1-isopropyl-6-oxo-1,6-dihydropyridine-3-sulfonamide] | – | – | – | – | –
> 6.00 | > 6.00 | COc1cc(-c2cc(F)cc(C(C)C)c2NC(=O)NS(=O)(=O)c2ccc(=O)n(C(C)C)c2)ccn1 [Example 173, N-((4-Fluoro-2-isopropyl-6-(2-methoxypyridin-4-yl)phenyl)carbamoyl)-1-isopropyl-6-oxo-1,6-dihydropyridine-3-sulfonamide] | – | – | – | – | –
> 6.00 | > 6.00 | CC(C)n1cc(S(=O)(=O)NC(=O)Nc2c3c(cc4c2CCC4)CCC3)ncc1=O [Example 181, N-((1,2,3,5,6,7-Hexahydro-s-indacen-4-yl)carbamoyl)-4-isopropyl-5-oxo-4,5-dihydropyrazine-2-sulfonamide, sodium salt] | – | – | – | – | –
> 6.00 | 5.00 to 6.00 | CC(C)n1cc(S(=O)(=O)NC(=O)Nc2c3c(cc4c2CCC4)CCC3)ccc1=O [Example 185, N-((1,2,3,5,6,7-Hexahydro-s-indacen-4-yl)carbamoyl)-1-isopropyl-6-oxo-1,6-dihydropyridine-3-sulfonamide, sodium salt] | – | – | – | – | –

Structure (SMILES) | pIC50 (NLRP3 [1]) | pIC50 (NLRP3 [2]) | AUC ([3]; dose 1 mg/kg) [µg·h/mL] | clearance ([3]; dose 1 mg/kg) [L/h/kg] | half-life ([3]; dose 1 mg/kg) [h] | Vd ([3]; dose 1 mg/kg) [L/kg] | other results
CCN1CCC(S(=O)(=O)NC(=O)Nc2c3c(cc4c2CCC4)CCC3)CC1 [Example 6, 1-Ethyl-N-((1,2,3,5,6,7-hexahydro-s-indacen-4-yl)carbamoyl)piperidine-4-sulfonamide, potassium salt] | > 6.00 | > 6.00 | 2.34 | 0.432 | 2.7 | 0.61 | AUC (PK, oral administration): 5.4 µg·h/mL; Cmax (PK, oral administration): 1.77 µg/mL; Tmax (PK, oral administration): 0.5 h; half-life (PK, oral administration): 2.7 h
CCN1CCCC(S(=O)(=O)NC(=O)Nc2c3c(cc4c2CCC4)CCC3)C1 (centres unmarked) [Example 9, 1-Ethyl-N-((1,2,3,5,6,7-hexahydro-s-indacen-4-yl)carbamoyl)-piperidine-3-sulfonamide, potassium salt] | > 6.00 | > 6.00 | 2.67 | 0.39 | 3.9 | 0.63 | –
CC(C)N1CCC(S(=O)(=O)NC(=O)Nc2c3c(cc4c2CCC4)CCC3)C1 (centres unmarked) [Example 41, N-((1,2,3,5,6,7-Hexahydro-s-indacen-4-yl)carbamoyl)-1-iso-propylpyrrolidine-3-sulfonamide, potassium salt] | > 6.00 | > 6.00 | 1.85 | 0.546 | 2.9 | 0.78 | –
CC(C)N1CC(S(=O)(=O)NC(=O)Nc2c3c(cc4c2CCC4)CCC3)C1 [Example 46, N-((1,2,3,5,6,7-Hexahydro-s-indacen-4-yl)carbamoyl)-1-iso-propylazetidine-3-sulfonamide, potassium salt] | > 6.00 | > 6.00 | 2.08 | 0.492 | 1.2 | 0.45 | AUC (PK, oral administration): 3.51 µg·h/mL; Cmax (PK, oral administration): 1.33 µg/mL; Tmax (PK, oral administration): 0.67 h; half-life (PK, oral administration): 1.4 h
CCCN1CC(S(=O)(=O)NC(=O)Nc2c3c(cc4c2CCC4)CCC3)C1 [Example 76, N-((1,2,3,5,6,7-Hexahydro-s-indacen-4-yl)carbamoyl)-1-propylazetidine-3-sulfonamide, potassium salt] | > 6.00 | > 6.00 | 2.65 | 0.378 | 1 | 0.25 | –
O=C(Nc1c2c(cc3c1CCC3)CCC2)NS(=O)(=O)C1CN(CC2CC2)C1 [Example 94, 1-(Cyclopropylmethyl)-N-((1,2,3,5,6,7-hexahydro-s-indacen-4-yl)carbamoyl)azetidine-3-sulfonamide, potassium salt] | > 6.00 | > 6.00 | – | – | – | – | AUC ([3]; dose 2.09 mg/kg): 1.41 µg·h/mL; clearance ([3]; dose 2.09 mg/kg): 1.51 L/h/kg; half-life ([3]; dose 2.09 mg/kg): 1.1 h; Vd ([3]; dose 2.09 mg/kg): 1.62 L/kg
O=C(Nc1c2c(cc3c1CCC3)CCC2)NS(=O)(=O)C1CN(C2CSC2)C1 [Example 109, N-((1,2,3,5,6,7-Hexahydro-s-indacen-4-yl)carbamoyl)-1-(thietan-3-yl)azetidine-3-sulfonamide, potassium salt] | > 6.00 | > 6.00 | 1.73 | 0.576 | 1.3 | 0.64 | –
